In the experiment the test system is NK92 cells. As to the kind of experiment: IFN-γ production in NK92 cells, released IFN-γ in culture supernatant by ELISA. To be noted: for effect on IFN-γ production: 10 nM, similar to the same dose of PMA (positive control). It is filed as cell-based, human. How it is done:
NK92 cells (human NK lymphoma) were obtained from American Type Culture Collection. NK92 cells were kept in α-MEM (Invitrogen, US) containing 20% fetal bovine serum (Invitrogen), 2 mM […], […] (Invitrogen), and were replenished with 100 U/mL IL-2 (Peprotech, US). NK92 cell culture was carried out in a culture medium at 37° C. under 5% CO2 humidity atmosphere. The amount of human IFN-γ was analyzed according to the protocol of a supplier using an assay kit (Endogen, Woburn, US).
In order to detect IFN-γ, 2×10^5 NK92 cell/mL was inoculated in a 48-well culture plate, and was cultured for 12 hours with each isolated compounds in an α-MEM medium containing 20% FBS and IL-2. The IFN-γ released in the culture supernatant was analyzed using an ELISA method. The absorbance was measured on a microplate reader and the treatment and the analysis for all the compounds were repeated twice. The cell toxicity of the compound-treated NK92 cells was evaluated through an MTT analysis.
(ELISA stands for enzyme-linked immunosorbent assay.)

These results are taken from patent US9481630B2, “Ingenane-type diterpene compound, and pharmaceutical composition for treating or preventing viral infectious diseases containing same” (priority 2011, dated 2016).

For `CCCCCCCCCCCC(=O)O[C@@]12C[C@@H](C)[C@]34C=C(C)[C@H](O)[C@@]3(O)[C@H](OC(=O)C(C)C(C)C)C(C)=C[C@H](C4=O)C1C2(C)C` (stereo partly drawn) [Compound 1, 5-O-(2,3-dimethylbutanoyl)-13-O-dodecanoyl-20-O-deoxyingenol], under “1.25 μM”, the “activity for inducing IFN-γ production” value is on record as “had activity for inducing IFN-γ production”. `CCCCCCCCCC(=O)OCC1=C[C@@H]2C(=O)[C@]3(C=C(C)[C@H](O)[C@@]3(O)[C@@H]1O)[C@H](C)C[C@@H]1[C@H]2C1(C)C` [Compound 3, 20-O-decanoylingenol]: the “activity for inducing IFN-γ production” value (100 nM) is on record as “had activity for inducing IFN-γ production”.

For the molecule `CCCCC/C=C\C=C\C(=O)O[C@H]1C(C)=C[C@]23C(=O)[C@@H](C=C(COC(C)=O)[C@@H](O)[C@]12O)[C@H]1[C@@H](C[C@H]3C)C1(C)C` [Compound 4, 20-O-acetylingenol-3-O-(2′E,4′Z) decadienate], the “effect on IFN-γ production” value is “significant effects on the IFN-γ production”. Regarding `CCCCCCCCCCCC(=O)O[C@@]12C[C@@H](C)[C@]34C=C(C)[C@H](OC(=O)C(C)C(C)C)[C@@]3(O)[C@H](O)C(CO)=C[C@H](C4=O)[C@@H]1C2(C)C` (stereo partly drawn) [Compound 6, 3-O-(2,3-dimethylbutanoyl)-13-O-dodecanoylingenol], the “effect on IFN-γ production” value is “significant effects on the IFN-γ production”.

Regarding `C[C@H](C/C=C/C(C)(C)O)[C@@H]1CC[C@]2(C)C3=C(CC[C@@]12C)[C@@]1(C)CC[C@H](O)C(C)(C)C1CC3` (stereo partly drawn) [Compound 8, (20R,23E)-eupha-8,23-diene-3b,25-diol], the “activity for inducing IFN-γ production” value (5 μM) is on record as “had activity for inducing IFN-γ production”. Still for that read-out and setting: the same measure for gansuiphorin A [Compound 5]: “had activity for inducing IFN-γ production”.
